Laboratory results: patent EP0115400A1, “Triazole antifungal agents” (Pfizer Limited, priority 1983, dated 1984)

The molecules below were run on Candida albicans (assay: in vivo oral protection of mice inoculated with a lethal infection of Candida albicans). Conditions: oral administration to mice with lethal Candida albicans infection; survival of treated group after death of untreated group, 48 hours observation.
Protocol: The in vivo evaluation of the compounds can be carried out at a series of dose levels by intraperitoneal or intravenous injection or by oral administration, to mice which are inoculated with a strain of Candida albicans. Activity is based on the survival of a treated group of mice after the death of an untreated group of mice following 48 hours observation. The dose level at which the compound provides 50X protection against the lethal effect of the infection is noted.
The compounds of the Examples were tested in vivo by oral administration to mice inoculated with a lethal infection of Candida albicans according to the procedures described herein. The dose levels providing 50% protection (PD50) were as follows: […]

Question: How did the “PD50 (dose level providing 50% protection)” value turn out when `Cn1ncnc1CC(O)(Cn1cncn1)c1ccc(Cl)cc1Cl` (stereo not drawn) [Example 3 (2), 2-(2,4-Dichlorophenyl)-1-(2-methyl-1,2,4-triazol-3-yl)-3-(1H-1-2,4-triazol-1-yl)propan-2-ol] was run?
Answer: Its value is 20 mg/kg/p.o.

Question: `Cn1cnnc1CC(O)(Cn1cncn1)c1ccc(Cl)cc1Cl` (stereo not drawn) [Example 3 (3), 2-(2,4-Dichlorophenyl)-1-(4-methyl-1,2,4-triazol-3-yl)-3-(1H-1,2,4-triazol-l-yl)propan-2-ol] was tested. Which “PD50 (dose level providing 50% protection)” value did it give?
Answer: The value was 3.5 mg/kg/p.o.

Same assay, conditions: oral administration to mice with lethal Candida albicans infection; survival of treated group after death of untreated group, 48 hours observation; read-out: PD50 (dose level providing 50% protection)

Question: How did the ED50 turn out when `Cn1nnnc1CC(O)(Cn1cncn1)c1ccc(Cl)cc1Cl` (stereo not drawn) [Example 1, 2-(2,4-Dichlorophenyl)-1-(1-methyltetrazol-5-yl)-3-(lH-1,2,4-triazol-l-yl)propan-2-ol] was run?
Answer: The ED50 was 0.1 mg/kg.

Question: Which ED50 does the source give for `OC(Cc1ncn[nH]1)(Cn1cncn1)c1ccc(Cl)cc1Cl` (stereo not drawn) [Example 2, 2-(2,4-Dichlorophenyl)-1-(1,2,4-triazol-3-yl)-3-(1H-1,2,4-triazol-1-yl)propan-2-ol, dioxalate] here?
Answer: Its ED50 is 2.2 mg/kg.

Question: With `OC(Cc1ncc[nH]1)(Cn1cncn1)c1ccc(Cl)cc1Cl` (stereo not drawn) [Example 4, 2-(2,4-Dichlorophenyl)-1-(imidazol-2-yl)-3-(1H-1,2,4-triazol-1-yl)propan-2-ol] as the molecule, how does the ED50 read?
Answer: The ED50 was 1.2 mg/kg.

Question: How did the ED50 turn out when `Cn1ccnc1CC(O)(Cn1cncn1)c1ccc(Cl)cc1Cl` (stereo not drawn) [Example 5, 2-(2,4-Dichlorophenyl)-1-(1-methylimidazol-2-yl)-3-(1H-1,2,4-triazol-1-yl)propan-2-ol dimesylate] was run?
Answer: Its ED50 is 1 mg/kg.
